Data: PMC10526274, “Epithelial-Immune Cell Crosstalk Determines the Activation of Immune Cells In Vitro by the Human Cathelicidin LL-37 at Low Physiological Concentrations” (Biomolecules, 2023)
Values joined by “and” are separate entries in the source; they are usually repeats but may differ in a detail not shown here. Equal entries are not always repeated.

Columns and labels:
primary blood monocytes = assay: Multiplex xMAP cytokine levels, primary blood monocytes alone stimulated with LL-37; format: cell-based, human; settings: 1 µM LL-37, 24 h
Experimental: Peripheral blood mononuclear cells (PBMCs) from a healthy donor were purchased from the American Type Culture Collection (ATCC PCS-800-011). Blood monocytes were isolated from PBMCs by plastic adhesion. Mature monocyte-derived dendritic cells (moDCs) were generated in vitro from peripheral blood monocytes, according to Nair et al.. Briefly, monocytes were cultured in a humidified CO2-incubator (5% CO2, 37 °C) in the complete RPMI-1640 medium (Gibco) with 10% FBS, antibiotics, and supplemented with a cytokine cocktail containing 500 U/mL rhIL-4 and 800 U/mL rhGM-CSF (both Sci-Store, Moscow, Russia). On the third day, the medium was replaced by the same fresh medium with FBS, antibiotics, and the cytokine cocktail. Induction of maturation of the immature monocyte-derived dendritic cells was performed on the 5th day by replacing the medium with the complete RPMI-1640 medium (Gibco) with 10% FBS and antibiotics, supplemented with a cytokine cocktail containing 500 U/mL rhIL-4, 800 U/mL rhGM-CSF (both Sci-Store, Moscow, Russia), and 100 U/mL rhTNF-α (Sigma-Aldrich), and subjected to subsequent incubation of the culture for 4 more days.
Primary blood monocytes, moDCs, and NKT cells were seeded in 600 µL of complete RPMI-1640 with 10% Human AB serum (Capricorn Scientific, Ebsdorfergrund, Germany) and supplemented with 1X antibiotic–antimycotic solution into the wells of 24-well plates at a density of 3–7 × 10^5 cells/well 24 h before the experiment. Then, 24 h later, the medium in each well was replaced by the same medium with 1 µM of LL-37 for the sample wells or fresh medium alone for the control wells, and the permeable inserts with the Caco-2 monolayer with TEER > 400 Ω × cm^2, containing 400 μL of the complete medium in their apical chamber, were immediately placed into the appropriate wells. Also, inserts with the Caco-2 monolayer were placed in cell-free wells of 24-well plates in the same complete RPMI-1640 medium with or without 1 µM of LL-37 as controls. Cells were kept in a CO2-incubator (5% CO2, 37 °C) for another 24 h. Then, culture medium from each well was collected, centrifuged, and frozen at −70 °C.
To quantitatively evaluate a broad spectrum of analytes secreted by human cell cultures at the protein level, multiplex xMAP technology was used. The chosen panel (cat. #HCYTA-60K-PX48, Merck, Darmstadt, Germany) included 48 different magnetic beads with primary antibodies to the following cytokines, chemokines, and growth factors: CCL11 (Eotaxin-1), Flt-3 ligand, CX3CL1 (Fractalkine), sCD40L, FGF-2, EGF, GROα, GM-CSF, G-CSF, IL-1RA, IL-1α, IL-1β, IL-2, IL-3, IL-4, IL-5, IL-6, IL-7, CXCL8 (IL-8), IL-9, IL-10, IL-12p40, IL-12p70, IL-13, IL-15, IL-17A (CTLA8), IL-17E (IL-25), IL-17F, IL-18, IL-22, IL-27, IFNγ, IFNα2, CXCL10 (IP-10), CCL2 (MCP-1), CCL7 (MCP-3), CCL22 (MDC), CXCL9 (MIG), CCL3 (MIP-1α), CCL4 (MIP-1β), CCL5 (RANTES), M-CSF, PDGF-AA, PDGF-AB/BB, TNFα, TNFβ, TGFα, and VEGF-A. The assay was performed in accordance with the manufacturer’s instructions with overnight incubation of the samples with primary antibodies, and the plate was read on a MAGPIX System (Merck) using the xPONENT 4.2 software (Merck). The acquired fluorescence data were analyzed by the MILLIPLEX Analyst v5.1 software (Merck), which realized an advanced curve-fitting algorithm. Levels of the analytes in control and experimental samples were compared with an unpaired two-sample t-test using GraphPad Prism v.8.0.1 (GraphPad Software, Inc., San Diego, CA, USA). The p-values ≤ 0.05 were considered significant.

human PBMCs = settings: LL-37 at 5 μg/mL; cited from earlier work
Experimental: In contrast to the chemotactic potential of LL-37, available data on its ability to induce cytokine production by different cells argue for the absence of its biological activity at low physiological concentrations of ∼5 μg/mL observed in non-inflamed tissues. […] In the current study, we used LL-37 at a concentration of 1 μM (4.5 μg/mL) to study whether this peptide had immunomodulatory activity under non-inflamed physiological conditions. In ou ...

LL-37: the only human cathelicidin, host defense antimicrobial peptide of 37 a.a. residues, produced by solid-phase peptide synthesis
RANTES level (primary blood monocytes; n=2, control 1.06): 181.22 pg/mL
FLT-3L level (primary blood monocytes; n=2, control 1.18): 0.93 pg/mL
IL-2 level (primary blood monocytes; n=2, control 1.49): 0.99 pg/mL
IL-18 level (primary blood monocytes; n=2, control 1.74): 1.22 pg/mL
IFNg level (primary blood monocytes; n=2, control 1.82): 1.8 pg/mL
IL-4 level (primary blood monocytes; n=2, control 1.92): 1.63 pg/mL
IL-17A level (primary blood monocytes; n=2, control 2.18): 3.05 pg/mL
IL-15 level (primary blood monocytes; n=2, control 2.88): 1.82 pg/mL
GM-CSF level (primary blood monocytes; n=2, control 3.83): 4.97 pg/mL
TGF-a level (primary blood monocytes; n=2, control 4.84): 3.88 pg/mL
IL-9 level (primary blood monocytes; n=2, control 6.65): 6.65 pg/mL
TNFb level (primary blood monocytes; n=2, control 10.12): 11.76 pg/mL
IFNa2 level (primary blood monocytes; n=2, control 15.98): 11.65 pg/mL
EGF level (primary blood monocytes; n=2, control 18.24): 17.26 pg/mL
IL-1a level (primary blood monocytes; n=2, control 18.92): 25.51 pg/mL
IL-10 level (primary blood monocytes; n=2, control 22.54, p = 0.23): 23.6 pg/mL and 23.64 pg/mL
IL-13 level (primary blood monocytes; n=2, control 25.51): 23.32 pg/mL
IL-1b level (primary blood monocytes; n=2, control 25.75, p = 0.094): 32 pg/mL and 32.49 pg/mL
IL-22 level (primary blood monocytes; n=2, control 27.2): 27.2 pg/mL
Fractalkine level (primary blood monocytes; n=2, control 28.72): 25.92 pg/mL
M-GSF level (primary blood monocytes; n=2, control 32.5): 62.71 pg/mL
IL-12 (p40) level (primary blood monocytes; n=2, control 32.89): 37.68 pg/mL
VEGFa level (primary blood monocytes; n=2, control 35.58): 36.32 pg/mL
MIP-1a level (primary blood monocytes; n=2, control 45.5, p = 0.0001): 109 pg/mL and 109.63 pg/mL
FGF-2 level (primary blood monocytes; n=2, control 52.5): 47.27 pg/mL
PDGF-AA level (primary blood monocytes; n=2, control 62.71): 47.99 pg/mL
IL-27 level (primary blood monocytes; n=2, control 63.66): 67.29 pg/mL
MIP-1b level (primary blood monocytes; n=2, control 78.19, p = 0.0004): 2750 pg/mL
IL-1RA level (primary blood monocytes; n=2, control 86.47): 65.97 pg/mL
sCD40L level (primary blood monocytes; n=2, control 108.76): 102.18 pg/mL
TNFa level (primary blood monocytes; n=2, control 110.45, p = 0.15): 123 pg/mL and 123.49 pg/mL
G-CSF level (primary blood monocytes; n=2, control 121.45, p = 0.002): 220 pg/mL and 220.28 pg/mL
MIG level (primary blood monocytes; n=2, control 606.02, p = 0.003): 342 pg/mL and 342.19 pg/mL
PDGF-AB/BB level (primary blood monocytes; n=2, control 1327): 1070 pg/mL
IP-10 level (primary blood monocytes; n=2, control 1716): 11.29 pg/mL
MDC level (primary blood monocytes; n=2, control 3407): 3208 pg/mL
IL-6 level (primary blood monocytes; n=2, control 4145): 4861 pg/mL
MCP-3 level (primary blood monocytes; n=2, control 4963): 3343 pg/mL
GROa level (primary blood monocytes; n=2, control 5512): 5987 pg/mL
MCP-1 level (primary blood monocytes; n=2, control 8325): 7953 pg/mL
IL-7 level (primary blood monocytes; n=2, control <0.30): <0.30↓ pg/ml
IL-5 level (primary blood monocytes; n=2, control <0.35): <0.35↓ pg/ml
IL-3 level (primary blood monocytes; n=2, control <0.55): <0.55↓ pg/ml
IL-12 (p70) level (primary blood monocytes; n=2, control <1.71): <1.71↓ pg/ml
Eotaxin level (primary blood monocytes; n=2, control <2.91): <2.91↓ pg/ml
IL-17F level (primary blood monocytes; n=2, control <12.19): <12.19↓ pg/ml
IL-17E/IL-25 level (primary blood monocytes; n=2, control <19.43): <19.43↓ pg/ml
IL-8 level (primary blood monocytes; n=2, control >21942): >21942↑ pg/ml
Production of TNFα or IL-10 in human PBMCs (human PBMCs): not able to increase the production of TNFα or IL-10
